Consider 15 compounds from US20260007681A1, “INDOLE DERIVATIVES AS ESTROGEN RECEPTOR DEGRADERS” (REGENTS OF THE UNIVERSITY OF MICHIGAN, priority 2022, published 2026).

The target of the experiment is ER (Homo sapiens (Human), UniProt P03372). The experiment in a line: Western blot analysis (Compounds B1-B278). The experiment is classed as cell-based. To be noted: ER degradation by traditional Western blot; DC50 classes. In short, it runs like this: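 Compound-treated cells were lysed in RIPA buffer (Tris.HCl pH 7.6, 1% NP-40, deoxycholate, 0.1% SDS) with protease inhibitors; equal protein was resolved on 10% SDS-PAGE, transferred to PVDF and immunoblotted. Band intensities were quantified and normalized to GAPDH.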
Chain of ER (P03372 whole entry): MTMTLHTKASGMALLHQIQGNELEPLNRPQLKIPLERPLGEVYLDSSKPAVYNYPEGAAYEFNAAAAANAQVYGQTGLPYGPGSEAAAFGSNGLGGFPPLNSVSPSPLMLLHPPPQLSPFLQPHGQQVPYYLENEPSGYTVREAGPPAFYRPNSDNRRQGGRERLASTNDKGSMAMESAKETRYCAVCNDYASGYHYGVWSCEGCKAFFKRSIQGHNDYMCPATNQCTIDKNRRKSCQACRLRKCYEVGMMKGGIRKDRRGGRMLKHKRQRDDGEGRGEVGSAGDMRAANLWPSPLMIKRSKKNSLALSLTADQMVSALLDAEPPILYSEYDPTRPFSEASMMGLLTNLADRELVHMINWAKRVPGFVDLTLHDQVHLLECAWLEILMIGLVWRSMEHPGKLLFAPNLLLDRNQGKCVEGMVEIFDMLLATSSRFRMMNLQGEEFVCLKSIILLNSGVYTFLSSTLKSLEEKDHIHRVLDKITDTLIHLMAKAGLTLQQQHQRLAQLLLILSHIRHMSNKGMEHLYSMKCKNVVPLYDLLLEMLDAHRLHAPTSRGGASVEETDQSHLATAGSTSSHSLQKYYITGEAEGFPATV

For the compound `C[C@@H]1Cc2c([nH]c3ccccc23)[C@@H](c2c(F)cc(N3CCC4(CC3)CN(CC3Cc5cc6c(cc5C3)C(=O)N(C3CCC(=O)NC3=O)C6=O)C4)cc2F)N1CC(F)F` (stereo partly drawn) [Compound B205, 6-((7-(4-((1R,3R)-2-(2,2-difluoroethyl)-3-methyl-2,3,4,9-tetrahydro-1H-pyrido[3,4-b]indol-1-yl)-3,5-difluorophenyl)-2,7-diazaspiro[3.5]nonan-2-yl)methyl)-2-(2,6-dioxopiperidin-3-yl)-6,7-dihydrocyclopenta[f]isoindole-1,3(2H,5H)-dione], the “Traditional Western Degradation Potency” value is “C (“C”: >100 nM)”.
As for `C[C@@H]1Cc2c([nH]c3ccccc23)[C@@H](c2c(F)cc(N3CCC(C(=O)N4CCC(CN5Cc6cc7c(cc6C5)C(=O)N(C5CCC(=O)NC5=O)C7=O)CC4)CC3)cc2F)N1CC(F)F` (stereo partly drawn) [Compound B206, 6-((1-(1-(4-((1R,3R)-2-(2,2-difluoroethyl)-3-methyl-2,3,4,9-tetrahydro-1H-pyrido[3,4-b]indol-1-yl)-3,5-difluorophenyl)piperidine-4-carbonyl)piperidin-4-yl)methyl)-2-(2,6-dioxopiperidin-3-yl)-6,7-dihydropyrrolo[3,4-f]isoindole-1,3(2H,5H)-dione], the “Traditional Western Degradation Potency” value was “C (“C”: >100 nM)”.
Consider `C[C@@H]1Cc2c([nH]c3ccccc23)[C@@H](c2c(F)cc(N3CCC(C(=O)N4CC(CN5Cc6cc7c(cc6C5)C(=O)N(C5CCC(=O)NC5=O)C7=O)C4)CC3)cc2F)N1CC(F)F` (stereo partly drawn) [Compound B207, 6-((1-(1-(4-((1R,3R)-2-(2,2-difluoroethyl)-3-methyl-2,3,4,9-tetrahydro-1H-pyrido[3,4-b]indol-1-yl)-3,5-difluorophenyl)piperidine-4-carbonyl)azetidin-3-yl)methyl)-2-(2,6-dioxopiperidin-3-yl)-6,7-dihydropyrrolo[3,4-f]isoindole-1,3(2H,5H)-dione], for which the “Traditional Western Degradation Potency” value was “B (“B”: 10-100 nM)”.
`C[C@@H]1Cc2c([nH]c3ccccc23)[C@@H](c2c(F)cc(N3CCC(C(=O)N4CC(N5Cc6cc7c(cc6C5)C(=O)N(C5CCC(=O)NC5=O)C7=O)C4)CC3)cc2F)N1CC(F)F` (stereo partly drawn) [Compound B208, 6-(1-(1-(4-((1R,3R)-2-(2,2-difluoroethyl)-3-methyl-2,3,4,9-tetrahydro-1H-pyrido[3,4-b]indol-1-yl)-3,5-difluorophenyl)piperidine-4-carbonyl)azetidin-3-yl)-2-(2,6-dioxopiperidin-3-yl)-6,7-dihydropyrrolo[3,4-f]isoindole-1,3(2H,5H)-dione]: the “Traditional Western Degradation Potency” value is listed as “C (“C”: >100 nM)”.
Next, `C[C@@H]1Cc2c([nH]c3ccccc23)[C@@H](c2c(F)cc(N3CC(C(=O)N4CCC(N5Cc6cc7c(cc6C5)C(=O)N(C5CCC(=O)NC5=O)C7=O)CC4)C3)cc2F)N1CC(F)F` (stereo partly drawn) [Compound B209, 6-(1-(1-(4-((1R,3R)-2-(2,2-difluoroethyl)-3-methyl-2,3,4,9-tetrahydro-1H-pyrido[3,4-b]indol-1-yl)-3,5-difluorophenyl)azetidine-3-carbonyl)piperidin-4-yl)-2-(2,6-dioxopiperidin-3-yl)-6,7-dihydropyrrolo[3,4-f]isoindole-1,3(2H,5H)-dione]: “C (“C”: >100 nM)”; `C[C@@H]1Cc2c([nH]c3ccccc23)[C@@H](c2c(F)cc(N3CC(C(=O)N4CCC(CN5Cc6cc7c(cc6C5)C(=O)N(C5CCC(=O)NC5=O)C7=O)CC4)C3)cc2F)N1CC(F)F` (stereo partly drawn) [Compound B210, 6-((1-(1-(4-((1R,3R)-2-(2,2-difluoroethyl)-3-methyl-2,3,4,9-tetrahydro-1H-pyrido[3,4-b]indol-1-yl)-3,5-difluorophenyl)azetidine-3-carbonyl)piperidin-4-yl)methyl)-2-(2,6-dioxopiperidin-3-yl)-6,7-dihydropyrrolo[3,4-f]isoindole-1,3(2H,5H)-dione]: “C (“C”: >100 nM)”.
In the case of `C[C@@H]1Cc2c([nH]c3ccccc23)[C@@H](c2c(F)cc(N3CCC(CN4CCC(C(=O)N5Cc6cc7c(cc6C5)C(=O)N(C5CCC(=O)NC5=O)C7=O)CC4)CC3)cc2F)N1CC(F)F` (stereo partly drawn) [Compound B211, 6-(1-((1-(4-((1R,3R)-2-(2,2-difluoroethyl)-3-methyl-2,3,4,9-tetrahydro-1H-pyrido[3,4-b]indol-1-yl)-3,5-difluorophenyl)piperidin-4-yl)methyl)piperidine-4-carbonyl)-2-(2,6-dioxopiperidin-3-yl)-6,7-dihydropyrrolo[3,4-f]isoindole-1,3(2H,5H)-dione], the “Traditional Western Degradation Potency” value is reported as “C (“C”: >100 nM)”.
Take `C[C@@H]1Cc2c([nH]c3ccccc23)[C@@H](c2c(F)cc(N3CCC(CN4CC(C(=O)N5Cc6cc7c(cc6C5)C(=O)N(C5CCC(=O)NC5=O)C7=O)C4)CC3)cc2F)N1CC(F)F` (stereo partly drawn) [Compound B212, 6-(1-((1-(4-((1R,3R)-2-(2,2-difluoroethyl)-3-methyl-2,3,4,9-tetrahydro-1H-pyrido[3,4-b]indol-1-yl)-3,5-difluorophenyl)piperidin-4-yl)methyl)azetidine-3-carbonyl)-2-(2,6-dioxopiperidin-3-yl)-6,7-dihydropyrrolo[3,4-f]isoindole-1,3(2H,5H)-dione]: the “Traditional Western Degradation Potency” value is “C (“C”: >100 nM)”.
For `C[C@@H]1Cc2c([nH]c3ccccc23)[C@@H](c2c(F)cc(N3CCC(CN4CCC(N5Cc6cc7c(cc6C5)C(=O)N(C5CCC(=O)NC5=O)C7=O)CC4)CC3)cc2F)N1CC(F)F` (stereo partly drawn) [Compound B213, 6-(1-((1-(4-((1R,3R)-2-(2,2-difluoroethyl)-3-methyl-2,3,4,9-tetrahydro-1H-pyrido[3,4-b]indol-1-yl)-3,5-difluorophenyl)piperidin-4-yl)methyl)piperidin-4-yl)-2-(2,6-dioxopiperidin-3-yl)-6,7-dihydropyrrolo[3,4-f]isoindole-1,3(2H,5H)-dione], the “Traditional Western Degradation Potency” value is recorded as “A (“A”: <10 nM)”.
Take `C[C@@H]1Cc2c([nH]c3ccccc23)[C@@H](c2c(F)cc(N3CCC(C(=O)N4CCC(N5Cc6cc7c(cc6C5)C(=O)N(C5CCC(=O)NC5=O)C7=O)CC4)CC3)cc2F)N1CC(C)(F)F` (stereo partly drawn) [Compound B214, 6-(1-(1-(4-((1R,3R)-2-(2,2-difluoropropyl)-3-methyl-2,3,4,9-tetrahydro-1H-pyrido[3,4-b]indol-1-yl)-3,5-difluorophenyl)piperidine-4-carbonyl)piperidin-4-yl)-2-(2,6-dioxopiperidin-3-yl)-6,7-dihydropyrrolo[3,4-f]isoindole-1,3(2H,5H)-dione]: the “Traditional Western Degradation Potency” value is “A (“A”: <10 nM)”.
Next, `C[C@@H]1Cc2c([nH]c3ccccc23)[C@@H](c2c(F)cc(N3CCC4(CCN(C(=O)CN5Cc6cc7c(cc6C5)C(=O)N(C5CCC(=O)NC5=O)C7=O)CC4)CC3)cc2F)N1CC(C)(F)F` (stereo partly drawn) [Compound B215, 6-(2-(9-(4-((1R,3R)-2-(2,2-difluoropropyl)-3-methyl-2,3,4,9-tetrahydro-1H-pyrido[3,4-b]indol-1-yl)-3,5-difluorophenyl)-3,9-diazaspiro[5.5]undecan-3-yl)-2-oxoethyl)-2-(2,6-dioxopiperidin-3-yl)-6,7-dihydropyrrolo[3,4-f]isoindole-1,3(2H,5H)-dione]: “A (“A”: <10 nM)”; `C[C@@H]1Cc2c([nH]c3ccccc23)[C@@H](c2cnc(N3CCC4(CCN(C(=O)CN5Cc6cc7c(cc6C5)C(=O)N(C5CCC(=O)NC5=O)C7=O)CC4)CC3)nc2)N1CC(F)(F)F` (stereo partly drawn) [Compound B216, 2-(2,6-dioxopiperidin-3-yl)-6-(2-(9-(5-((1R,3R)-3-methyl-2-(2,2,2-trifluoroethyl)-2,3,4,9-tetrahydro-1H-pyrido[3,4-b]indol-1-yl)pyrimidin-2-yl)-3,9-diazaspiro[5.5]undecan-3-yl)-2-oxoethyl)-6,7-dihydropyrrolo[3,4-f]isoindole-1,3(2H,5H)-dione]: “A (“A”: <10 nM)”.
As for `C[C@@H]1Cc2c([nH]c3ccccc23)[C@@H](c2cnc(N3CCC4(CC3)CN(C(=O)CN3Cc5cc6c(cc5C3)C(=O)N(C3CCC(=O)NC3=O)C6=O)C4)nc2)N1CC(F)(F)F` (stereo partly drawn) [Compound B217, 2-(2,6-dioxopiperidin-3-yl)-6-(2-(7-(5-((1R,3R)-3-methyl-2-(2,2,2-trifluoroethyl)-2,3,4,9-tetrahydro-1H-pyrido[3,4-b]indol-1-yl)pyrimidin-2-yl)-2,7-diazaspiro[3.5]nonan-2-yl)-2-oxoethyl)-6,7-dihydropyrrolo[3,4-f]isoindole-1,3(2H,5H)-dione], the entry is “A (“A”: <10 nM)”; as for `C[C@@H]1Cc2c([nH]c3ccccc23)[C@@H](c2cnc(N3CCC(CN4CCC(N5Cc6cc7c(cc6C5)C(=O)N(C5CCC(=O)NC5=O)C7=O)CC4)CC3)nc2)N1CC(F)(F)F` (stereo partly drawn) [Compound B218, 2-(2,6-dioxopiperidin-3-yl)-6-(1-((1-(5-((1R,3R)-3-methyl-2-(2,2,2-trifluoroethyl)-2,3,4,9-tetrahydro-1H-pyrido[3,4-b]indol-1-yl)pyrimidin-2-yl)piperidin-4-yl)methyl)piperidin-4-yl)-6,7-dihydropyrrolo[3,4-f]isoindole-1,3(2H,5H)-dione], “B (“B”: 10-100 nM)”.
For `C[C@@H]1Cc2c([nH]c3ccccc23)[C@@H](c2cnc(N3CCC(C(=O)N4CCC(N5Cc6cc7c(cc6C5)C(=O)N(C5CCC(=O)NC5=O)C7=O)CC4)CC3)nc2)N1CC(F)(F)F` (stereo partly drawn) [Compound B219, 2-(2,6-dioxopiperidin-3-yl)-6-(1-(1-(5-((1R,3R)-3-methyl-2-(2,2,2-trifluoroethyl)-2,3,4,9-tetrahydro-1H-pyrido[3,4-b]indol-1-yl)pyrimidin-2-yl)piperidine-4-carbonyl)piperidin-4-yl)-6,7-dihydropyrrolo[3,4-f]isoindole-1,3(2H,5H)-dione], the “Traditional Western Degradation Potency” value is recorded as “A (“A”: <10 nM)”.
